{
  "source": "patent US9498451B2",
  "about": "“Method for treating or preventing radiation damage” (Beijing Institute of Transfusion Medicine, Academy of …, priority 2013, dated 2016)",
  "key": {"[1]": {"tested_on": "mice radiated by 60Co γ-ray with a lethal dosage", "assay": "Survival rate of mice radiated by 60Co γ ray with a lethal dosage (8.0 Gy) and injected with TA01", "assay_type": "in vivo, mouse (male C57BL/6)", "conditions": "8.0 Gy 60Co whole body irradiation, vs control group", "experimental": "50 male C57BL/6 mice were subjected to whole body irradiation by ^60Co ray with a dosage rate of 1.56 Gy/min and an irradiation dosage of 8.0 Gy. The radiated mice were divided into 5 groups randomly, each group having 10 mice. The 5 groups were injected with TA01 with dosages of 0 mg/kg (control group), 1.25 mg/kg, 2.5 mg/kg, 5 mg/kg and 10 mg/kg, respectively. The injection was performed every three days and continued for 12 days, and the solvent of the injection was a PBS solution. Then, these mice were observed and survival rates of these mice were calculated.\nFIG. 2 is a diagram showing survival rates (rates of survival) of mice radiated by ^60Co γ-ray with a lethal dosage and subcutaneously injected with different dosages of TA01."}, "[2]": {"tested_on": "mice radiated by 60Co γ-ray with a lethal dosage", "assay": "HE staining of intestinal, hepatic and pulmonary tissues of mice radiated by 60Co γ-ray with a lethal dosage (8.0 Gy)", "assay_type": "in vivo, mouse (male C57/BL6)", "conditions": "2.5 mg/kg every three days, vs PBS group", "experimental": "6 male C57/BL6 mice were subjected to whole body irradiation by ^60Co γ ray with a dosage rate of 1.56 Gy/min and an irradiation dosage of 8.0 Gy. The radiated mice were divided into 2 groups randomly, a PBS group (control) having 3 mice and a TA01 group having 3 mice. Every mouse in the TA01 group was injected with 2.5 mg/kg TA01 (body weight) every three days, the solvent of the injection was a PBS solution with pH of 7.4. TA01 injection dosage for the PBS group was 0, in other words, only the PBS solution was injected. The mice both two groups were sacrificed by dislocation on the 10th day and the 14th day after the irradiation, respectively. The intestinal, hepatic and pulmonary tissues were collected, fixed with 4% paraformaldehyde and formed into paraffin sections. The paraffin sections were subjected to HE staining, so as to obserse repairing conditions of the intestinal, hepatic and pulmonary tissues, and the results were shown in FIGS. 5 and 6.\nFIG. 5 is diagrams showing results of hematoxylin-eosin staining with intestinal tissues of mice radiated by ^60Co γ-ray with a lethal dosage and treated with TA01 or PBS.\nFIG. 6 is diagrams showing results of hematoxylin-eosin staining with hepatic and pulmonary tissue of mice radiated by ^60Co γ-ray with a lethal dosage and treated with TA01 or PBS."}, "[3]": {"tested_on": "hemopoietic stem/progenitor cells in bone marrow", "assay": "Number of hemopoietic stem/progenitor cells (CFU, CFU-G, CFU-GM, CFU-MK) in bone marrow of sub-lethally radiated mice", "assay_type": "in vivo, mouse (male C57/BL6)", "conditions": "6.5 Gy; 2.5 mg/kg every three days; bone marrow on 7th day, 7 days culture; vs control group", "experimental": "6 male C57/BL6 mice were subjected to whole body irradiation by ^60Co γ ray with a dosage rate of 1.56 Gy/min and an irradiation dosage of 6.5 Gy. The radiated mice were divided into 2 groups randomly, a PBS group having 3 mice and a TA01 group having 3 mice. Every mouse in the TA01 group was injected with 2.5 mg/kg TA01 (body weight) every three days, the solvent of the injection was a PBS solution with pH from 7.5 to 8.5. TA01 injection dosage for the PBS group was 0, in other words, only the PBS solution was injected. On the 7th day after the subcutaneous injection, bone marrow blood was collected from each mouse into respective 10 mL tubes pretreated with heparin (commercially available from Tianjing Haoyang Biological Product Technology Limited Liability Company). After the bone marrow blood was mixed with the heparin uniformly, fresh PBS (commercially available from Hyclone Company) was added therein up to 5 mL. After mixing, a uniform mixture of blood and PBS was obtained. Mouse lymphocyte separation medium (commercially available from Tianjing Haoyang Biological Product Technology Limited Liability Company) were subjected to pre-aliquot in centrifuge tubes each having 5 mL of the lymphocyte separation medium (operating in a super clean bench). Then the uniform mixture was gently added on the top of the lymphocyte separation medium, after which a centrifuge was performed at 1500 rpm/min for 20 min. The intermediate layer of cells in a white color was sucked into a new 10 mL centrifuge tube, which was then added with PBS up to 10 mL followed by a mixing and centrifuge at 1500 rpm/min for 5 min. Then obtained upper PBS was removed, and the tube was added with fresh PBS up to 10 ml followed by a mixing and centrifuge at 1500 rpm/min for 5 min. Then the upper PBS was removed, and the tube was added with fresh PBS up to 1 mL followed by a mixing, which was then subjected to a cell number counting. After calculating the number of single nucleus per mL blood, the blood was mixed uniformly with 500 μL semisolid medium (including 0.9% methylcellulose, 15% fetal bovine serum, 100 U/ml penicillin/streptomycin, 1 mM sodium pyruvate, 2 mM glutaminate, 2 mM PFHM II, 200 m/ml transferrin, 1% BSA, 0.45 mM MTG, 30% IMDM, 50 ng/ml SCF, 10 ng/ml TPO, 10 ng/ml IL-3, 10 ng/ml IL-11, 10 ng/ml GM-CSF and 3 U/ml EPO), and cultured in an incubator containing 5% CO2 at 37° C. After 7 days, hematopoietic colony-forming unit (CFU), granulocyte colony-forming unit (CFU-G), granulocyte and macrophage colony-forming unit (CFU-GM) and megakaryocyte colony-forming unit (CFU-MK) were counted respectively, and the results were shown in FIG. 4. […]"}, "[4]": {"tested_on": "mice radiated by 60Co γ-ray with a sub-lethal dosage", "assay": "Contents of WBC, RBC and PLT in peripheral blood of mice radiated by 60Co γ-ray with a sub-lethal dosage (6.5 Gy)", "assay_type": "in vivo, mouse (male C57)", "conditions": "2.5 mg/kg every three days for 5 times, vs PBS group", "experimental": "10 male C57 mice were subjected to whole body irradiation by ^60Co γ ray with a dosage rate of 1.56 Gy/min and an irradiation dosage of 6.5 Gy. The radiated mice were divided into 2 groups randomly, a PBS group having 5 mice and a TA01 group having 5 mice. Every mouse in the TA01 group was injected with 2.5 mg/kg (body weight) TA01 every three days for 5 times, and the solvent of the injection was a PBS solution. Every mouse in the PBS group was treated with the same process as the TA01 group, with the exception that the injection amount of TA01 was 0, in other words, only the PBS solution was injected. After different days for treating, each group of the mice was subjected to a cutting-tail process to collect 20 μL blood which was subsequently added with 2 mL blood cell dilution (commercially available from Jinan Bolai Biotechnology Co., Ltd).\nFIG. 3 is diagrams showing contents of WBC, RBC and PLT in peripheral blood of mice radiated by ^60Co γ-ray with a sub-lethal dosage and injected subcutaneously with TA01 or PBS (control) at different time points."}},
  "note": "“Also recorded” adds a separate entry of the source.",
  "data": [
    {"smiles": "CN(C)CCN(CCN(C)C)CCN(C)C", "note": "[TA01, tris(2-(dimethylamino)ethyl)amine]", "values": [
      {"measurement": "survival rate", "setting": "[1]; TA01 1.25 mg/kg every three days for 5 times", "result": "significantly increased"},
      {"measurement": "survival rate", "setting": "[1]; TA01 2.5 mg/kg every three days for 5 times, 2.5 mg/kg", "result": "significantly increased; also recorded: best survival rate"},
      {"measurement": "survival rate", "setting": "[1]; TA01 5 mg/kg every three days for 5 times", "result": "significantly increased"},
      {"measurement": "survival rate", "setting": "[1]; TA01 10 mg/kg every three days for 5 times", "result": "significantly increased"},
      {"measurement": "repair of intestinal tissue (HE staining)", "setting": "[2]; 10th and 14th day", "result": "improve repairs"},
      {"measurement": "repair of hepatic tissue (HE staining)", "setting": "[2]", "result": "improve repairs"},
      {"measurement": "repair of pulmonary tissue (HE staining)", "setting": "[2]", "result": "improve repairs"},
      {"measurement": "number of CFU-G in bone marrow", "setting": "[3]", "result": "increased obviously"},
      {"measurement": "number of CFU-GM in bone marrow", "setting": "[3]", "result": "increased obviously"},
      {"measurement": "number of CFU-MK in bone marrow", "setting": "[3]", "result": "increased obviously"},
      {"measurement": "number of total colony-forming units (CFU) in bone marrow", "setting": "[3]", "result": "increased significantly"},
      {"measurement": "content of WBC in peripheral blood", "setting": "[4]; on the 4th, 7th and 21st day", "result": "significantly increased"},
      {"measurement": "content of PLT in peripheral blood", "setting": "[4]; on the 4th, 14th, 21st and 28th day", "result": "significantly increased"},
      {"measurement": "content of RBC in peripheral blood", "setting": "[4]; on the 21st day", "result": "most obviously increased"}
    ]}
  ]
}
